Measurements: US20210341482A1, “CANCER BIOMARKERS” (NOTTINGHAM UNIVERSITY HOSPITALS NHS TRUST, priority 2018, published 2021)

What was measured:
SPAG5 mRNA = SPAG5 mRNA expression change and clinical response during preoperative endocrine therapy (letrozole); type: in vivo, human
Description: B) Breast Cancer—Assessment of the Clinical Dynamic Response after Receiving Preoperative Endocrine Therapy (Aromatase Inhibitor) (i.e. Example 38)
The association between SPAG5 mRNA expression and clinical response after receiving preoperative therapy has been analysed in a total of 101 patients from a consecutive series of 255 postmenopausal women who presented to Western General Hospital in Edinburgh with large primary histologically confirmed estrogen receptor (ER)-rich (Allred scores 6 to 8) invasive breast cancer and who were recruited between 2003 and 2011 fulfilled the requirements to be included in this. All patients gave informed consent and the study was approved by the local regional ethics committee (2001/8/80 and 2001/8/81). Patients were treated with letrozole (Femara, 2.5 mg; Novartis Pharma AG, Basel, Switzerland) daily for at least 3 months. The clinical response was assessed by three-dimensional ultrasound measurements using dynamic (serial) changes in tumor volumes. Tumours with <50% reduction in volume were classified as non-responders. SPAG5 mRNA expression data were retrieved from the publically available gene expression microarray datasets at the National Center for Biotechnology Information Gene Expression Omnibus under access numbers (GSE59515, GSE55374, and GSE20181).
For “GSE59515” and “GSE55374” cases, RNA was extracted, labelled, and hybridized to HumanHT-12 v4 Illumina BeadChips (GPL10558) according to the standard protocol for NuGEN amplified samples. For GSE20181 cases, samples were processed on Affymetrix U133A gene chip (GPL96). There were no significant differences in clinical or pathologic features of patients or tumours from the three datasets. Illumina and Affymetrix data were independently normalized (quantile using the lumi Bioconductor package2l and the log scale robust multi-array analysis expression measure was implemented with the affy packages) and mapped to Ensembl gene identifiers using re-annotation and mapping for oligonucleotide array technologies and custom chip definition file, respectively, before detection filtering and batch correction with cross-platform normalization. Biopsies were taken from the same subjects at three time-points: pre-treatment, after 10-14 days Letrozol (2.5 mg/day, oral), and after 90 days Letrozol (2.5 mg/day, oral).

[1] = test system: ER+ early stage breast cancer; test: Distant relapse risk after adjuvant systemic therapy, multicentre adjuvant therapy cohort stratified by SPAG5 mRNA; type: in vivo, human
Description: A) Breast Cancer—Assessment Death and Distant Relapse Risks after Surgery and Receiving Adjuvant Systemic Therapy if Eligible in Early Stage Breast Cancer (i.e. Examples 26 to 37, 45, 49, 50, 53, 54 and 57)
The inventors evaluated the prognostic utility of SPAG5-mRNA expression in a large combined breast cancer (BC) cohort which was sourced from 15 publically-available, global datasets (n=3538) using the following access numbers.
All the databases had been downloaded and processed. The gene expression data were converted to a common scale (median equal to 0 and standard deviation equal to 1) in order to merge all of the studies data and create combined cohorts. Each sample in the data was standardised to a mean of 0 and standard deviation of 1. Then the data was median centred for each gene whereby median of each gene is 0.
SPAG5 gene expression data of each database were converted to a common scale (median equal to 0 and standard deviation equal to 1) in order to merge all of the studies data that used the same platform and create combined cohorts. To convert to a common scale each sample in the data was standardised to a mean of 0 and standard deviation of 1. Then the data was median centred for each gene whereby median of each gene is 0. Databases using same platform have been merged and the median expression was calculated. The median expression of SPAG5 transcript for each platform has been calculated and values equal to or higher than the median coded as +1 (overexpression). Values of less than the median have been coded 0 or low SPAG5.

SMILES | cases with SPAG5 mRNA significantly downregulated vs pre-treatment biopsy (SPAG5 mRNA; ER+ tumours, after 2 weeks) [%] | change of SPAG5 mRNA expression vs biopsy after 2 weeks (SPAG5 mRNA; ER+ tumours, after 12 weeks) | change of SPAG5 mRNA expression vs pre-treatment biopsy (SPAG5 mRNA; non-responding tumours, after 2 or 12 weeks) | responding tumours with significant down-regulation of SPAG5 mRNA (SPAG5 mRNA; tumour volume reduced by 50%, after 2 weeks) [%] | distant relapse risk ([1]; ER+ LN+ early stage BC, SPAG5+ mRNA overexpression) [%] | distant relapse risk ([1]; ER+ LN+ early stage BC, low SPAG5 mRNA) [%] | distant relapse risk ([1]; ER+ LN- early stage BC, SPAG5+ mRNA overexpression) [%] | distant relapse risk ([1]; ER+ LN- early stage BC, low SPAG5 mRNA) [%]
N#Cc1ccc(C(c2ccc(C#N)cc2)n2cncn2)cc1 [pre-operative endocrine therapy, letrozole] | 72 | significant further reduction | no significant change | 76 |  |  |  | 
CC/C(=C(\c1ccccc1)c1ccc(OCCN(C)C)cc1)c1ccccc1 [Tamoxifen] |  |  |  |  | 46 | 22 | 33 | 13
